The results in this text go back to patent publication US8871753B2, “Macrocyclic compounds and their use as kinase inhibitors” (Incyte Corporation, priority 2008, dated 2014).

Holding throughout (type): biochemical
Experiment [1] concerns the target T1, human JAK1 (a.a. 837-1142) (Homo sapiens, UniProt P23458).
T1 construct: human JAK1 (a.a. 837-1142); His tag (N); made in house; host or cells: insect cells (baculovirus)
In words: In vitro JAK kinase assay (HTRF, phosphorylation of a biotinylated peptide), JAK1. The settings on record: method AA1 (90 μM ATP) or AA2 (1000 μM ATP), not stated per value; read-out: JAK1 IC50. In a few lines:
(§1)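 Kinase reactions ran at room temperature for 1 h with ATP matched per isoform (JAK1 90 μM, JAK2 30 μM, JAK3 3 μM). After an EDTA stop, the phosphorylated biotin-peptide was read by HTRF using Eu-Py20 and SA-APC after 40 min binding.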
(In TR-FRET formats the signal depends on donor and acceptor labels being close together.)

Experiment [2] concerns the target T2, human JAK2 (a.a. 828-1132) (Homo sapiens, UniProt O60674).
T2 construct: JAK2 (a.a. 828-1132); His tag (N); made in house; host or cells: insect cells (baculovirus)
The experiment can be described thus: In vitro JAK kinase assay (HTRF, phosphorylation of a biotinylated peptide), JAK2. The settings on record: method AA1 (30 μM ATP) or AA2 (1000 μM ATP), not stated per value. In a few lines: as §1

The target of experiment [3] is T3, human JAK3 (a.a. 781-1124) (Homo sapiens, UniProt P52333).
T3 construct: JAK3 (a.a. 781-1124); His tag (N); made in house; host or cells: insect cells (baculovirus)
T3 sequence (P52333 781-1124): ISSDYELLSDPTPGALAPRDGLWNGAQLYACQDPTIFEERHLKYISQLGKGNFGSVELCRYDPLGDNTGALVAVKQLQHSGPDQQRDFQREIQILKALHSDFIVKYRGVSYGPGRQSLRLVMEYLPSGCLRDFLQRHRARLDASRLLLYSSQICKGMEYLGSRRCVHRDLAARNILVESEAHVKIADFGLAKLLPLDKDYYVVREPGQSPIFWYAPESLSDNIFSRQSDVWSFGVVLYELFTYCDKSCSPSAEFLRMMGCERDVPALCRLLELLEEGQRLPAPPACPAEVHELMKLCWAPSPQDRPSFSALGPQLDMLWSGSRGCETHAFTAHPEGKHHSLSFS
In words: In vitro JAK kinase assay (HTRF, phosphorylation of a biotinylated peptide), JAK3. The settings on record: method AA1 (3 μM ATP) or AA2 (1000 μM ATP), not stated per value. A digest of the protocol:
as §1

For the next experiment, the target named is TYK2 (Homo sapiens, UniProt P29597). The experiment can be described thus: TYK2 kinase inhibition (Table A1).
Chain of TYK2 (P29597 whole entry): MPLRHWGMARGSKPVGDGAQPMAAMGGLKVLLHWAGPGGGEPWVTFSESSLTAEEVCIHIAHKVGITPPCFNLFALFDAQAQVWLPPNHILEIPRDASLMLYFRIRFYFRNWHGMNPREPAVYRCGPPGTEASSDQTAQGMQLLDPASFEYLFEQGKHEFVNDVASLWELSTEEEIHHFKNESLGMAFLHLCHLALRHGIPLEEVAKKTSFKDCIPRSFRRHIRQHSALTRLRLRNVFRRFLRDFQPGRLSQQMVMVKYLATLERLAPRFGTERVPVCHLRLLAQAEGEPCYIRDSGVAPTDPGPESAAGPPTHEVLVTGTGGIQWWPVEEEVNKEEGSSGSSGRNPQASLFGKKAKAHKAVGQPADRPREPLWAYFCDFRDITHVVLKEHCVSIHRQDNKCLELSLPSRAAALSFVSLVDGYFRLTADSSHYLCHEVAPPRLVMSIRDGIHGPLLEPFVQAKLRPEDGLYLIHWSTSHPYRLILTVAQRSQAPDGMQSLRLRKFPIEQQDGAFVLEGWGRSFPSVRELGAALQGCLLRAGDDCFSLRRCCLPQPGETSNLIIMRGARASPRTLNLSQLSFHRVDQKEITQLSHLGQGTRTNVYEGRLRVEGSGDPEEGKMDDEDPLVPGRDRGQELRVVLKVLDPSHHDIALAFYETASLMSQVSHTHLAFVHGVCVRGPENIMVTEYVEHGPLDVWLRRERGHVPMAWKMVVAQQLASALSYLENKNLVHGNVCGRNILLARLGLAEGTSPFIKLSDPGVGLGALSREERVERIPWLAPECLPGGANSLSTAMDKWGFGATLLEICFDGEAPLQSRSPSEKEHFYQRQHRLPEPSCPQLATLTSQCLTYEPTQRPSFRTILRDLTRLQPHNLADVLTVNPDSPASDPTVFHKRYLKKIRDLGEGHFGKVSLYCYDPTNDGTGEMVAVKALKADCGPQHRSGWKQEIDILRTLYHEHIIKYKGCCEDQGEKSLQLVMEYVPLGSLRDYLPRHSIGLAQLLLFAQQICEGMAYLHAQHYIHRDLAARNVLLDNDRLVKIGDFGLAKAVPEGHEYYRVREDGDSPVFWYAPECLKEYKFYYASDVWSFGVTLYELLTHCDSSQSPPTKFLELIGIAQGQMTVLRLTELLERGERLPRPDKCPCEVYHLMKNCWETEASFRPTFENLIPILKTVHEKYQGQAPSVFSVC
Experiment [4] concerns the target T4, Recombinant Human Anaplastic Lymphoma Kinase (Homo sapiens, UniProt Q9UM73).
T4 construct: purchased Invitrogen, Carlsbad, Calif
The experiment can be described thus: ALK HTRF kinase assay. The settings on record: compound at 500 nM or 1 mM; 90 μM ATP. A digest of the protocol:
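Biotinylated peptide substrate, recombinant human ALK; detection via europium-chelate antibody to phosphotyrosine paired with streptavidin-APC. Potency expressed as IC50 from four-parameter curve fitting.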

Where only a bound is given, the exact number is not on record here.

T4 sequence (Q9UM73 19-1620): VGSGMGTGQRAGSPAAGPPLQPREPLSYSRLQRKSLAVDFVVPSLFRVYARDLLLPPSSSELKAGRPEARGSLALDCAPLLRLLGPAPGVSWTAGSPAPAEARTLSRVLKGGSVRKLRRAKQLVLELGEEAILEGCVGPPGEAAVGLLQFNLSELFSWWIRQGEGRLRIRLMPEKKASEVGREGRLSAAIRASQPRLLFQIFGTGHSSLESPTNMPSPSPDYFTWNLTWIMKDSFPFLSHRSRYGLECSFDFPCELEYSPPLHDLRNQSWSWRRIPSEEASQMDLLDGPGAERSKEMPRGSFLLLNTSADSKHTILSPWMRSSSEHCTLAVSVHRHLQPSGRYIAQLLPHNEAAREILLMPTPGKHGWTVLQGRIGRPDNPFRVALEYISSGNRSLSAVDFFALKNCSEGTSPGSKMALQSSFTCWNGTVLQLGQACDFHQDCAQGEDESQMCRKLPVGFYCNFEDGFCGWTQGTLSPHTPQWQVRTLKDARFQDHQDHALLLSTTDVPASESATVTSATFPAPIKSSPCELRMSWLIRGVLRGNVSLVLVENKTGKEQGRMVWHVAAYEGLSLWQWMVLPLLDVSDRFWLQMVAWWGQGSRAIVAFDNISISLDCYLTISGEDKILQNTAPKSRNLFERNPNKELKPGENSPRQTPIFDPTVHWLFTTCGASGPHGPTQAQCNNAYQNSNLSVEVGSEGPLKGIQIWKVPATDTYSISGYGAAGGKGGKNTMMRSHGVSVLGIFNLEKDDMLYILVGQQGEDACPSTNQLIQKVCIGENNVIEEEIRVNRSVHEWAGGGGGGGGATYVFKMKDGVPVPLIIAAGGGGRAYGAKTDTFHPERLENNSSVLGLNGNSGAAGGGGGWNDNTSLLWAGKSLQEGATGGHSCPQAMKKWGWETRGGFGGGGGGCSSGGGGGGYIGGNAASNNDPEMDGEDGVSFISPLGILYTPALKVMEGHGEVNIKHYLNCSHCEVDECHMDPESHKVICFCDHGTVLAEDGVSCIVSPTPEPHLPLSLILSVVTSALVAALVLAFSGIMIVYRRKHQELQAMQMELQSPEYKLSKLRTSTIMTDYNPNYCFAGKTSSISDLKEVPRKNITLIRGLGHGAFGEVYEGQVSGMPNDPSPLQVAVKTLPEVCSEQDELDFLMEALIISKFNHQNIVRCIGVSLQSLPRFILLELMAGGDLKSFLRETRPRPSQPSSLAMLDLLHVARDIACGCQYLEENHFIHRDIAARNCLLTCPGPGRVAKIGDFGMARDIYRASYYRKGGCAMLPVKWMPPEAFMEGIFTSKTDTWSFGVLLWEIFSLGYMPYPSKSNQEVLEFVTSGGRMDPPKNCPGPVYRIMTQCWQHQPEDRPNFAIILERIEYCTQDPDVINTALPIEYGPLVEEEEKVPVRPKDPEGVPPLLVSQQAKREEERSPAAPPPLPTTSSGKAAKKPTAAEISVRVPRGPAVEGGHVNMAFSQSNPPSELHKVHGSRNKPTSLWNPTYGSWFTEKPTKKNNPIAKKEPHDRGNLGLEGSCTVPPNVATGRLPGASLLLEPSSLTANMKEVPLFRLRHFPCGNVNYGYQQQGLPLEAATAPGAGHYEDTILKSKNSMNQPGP
T1 sequence (P23458 849-1154): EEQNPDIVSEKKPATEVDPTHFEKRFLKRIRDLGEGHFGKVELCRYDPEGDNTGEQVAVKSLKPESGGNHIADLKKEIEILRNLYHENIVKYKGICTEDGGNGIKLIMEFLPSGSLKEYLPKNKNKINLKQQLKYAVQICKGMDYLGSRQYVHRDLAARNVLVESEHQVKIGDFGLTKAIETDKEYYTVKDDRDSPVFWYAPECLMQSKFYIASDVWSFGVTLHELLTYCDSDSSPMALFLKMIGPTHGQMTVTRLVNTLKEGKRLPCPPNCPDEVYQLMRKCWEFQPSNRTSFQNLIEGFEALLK
T2 sequence (O60674 828-1132): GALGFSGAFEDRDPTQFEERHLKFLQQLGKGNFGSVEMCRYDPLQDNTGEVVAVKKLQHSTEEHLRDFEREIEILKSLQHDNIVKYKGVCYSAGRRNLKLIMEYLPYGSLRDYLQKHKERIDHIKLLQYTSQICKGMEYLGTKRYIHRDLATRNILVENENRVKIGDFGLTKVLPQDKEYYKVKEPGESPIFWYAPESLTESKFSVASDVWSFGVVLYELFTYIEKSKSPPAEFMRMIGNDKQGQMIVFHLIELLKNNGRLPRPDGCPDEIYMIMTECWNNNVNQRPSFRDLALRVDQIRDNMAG

As a reminder, the IC50 is the midpoint of a concentration-inhibition curve. For the compound `N#Cc1cccc(S(=O)(=O)N2CCC(CC(=O)Nc3ccc4cc3CCc3cncc(c3)Nc3ncc(Cl)c(n3)N4)CC2)c1` [Example A228, N-[6-Chloro-2,4,8,18,22-pentaazatetracyclo[14.3.1.1(3,7).1(9,13)]docosa-1(20),3(22),4,6,9(21),10,12,16,18-nonaen-12-yl]-2-{1-[(3-cyanophenyl)sulfonyl]piperidin-4-yl}acetamide bis(trifluoroacetate)], the IC50 was 6.9 nM in experiment [1], 114 nM in experiment [2], > 400 nM in experiment [3] and 109 nM against TYK2. Besides, in experiment [4], the “ALK % of inhibition at a concentration of 500 nM or 1 mM” value (shortened to “ALK % of inhibition”) stood at 62%.

As to `Cn1cnc(S(=O)(=O)N2CCC(CC(=O)Nc3ccc4cc3CCc3cncc(c3)Nc3ncc(Cl)c(n3)N4)CC2)c1` [Example A229, N-[6-Chloro-2,4,8,18,22-pentaazatetracyclo[14.3.1.1(3,7).1(9,13)]docosa-1(20),3(22),4,6,9(21),10,12,16,18-nonaen-12-yl]-2-{1-[(1-methyl-1H-imidazol-4-yl)sulfonyl]piperidin-4-yl}acetamide bis(trifluoroacetate)], the IC50 in experiment [1] is 8 nM; in experiment [2], 75 nM; in experiment [3], > 400 nM; on TYK2, 120 nM. In experiment [4], the “ALK % of inhibition” value amounted to 55%.

Regarding `Cc1nc(S(=O)(=O)N2CCC(CC(=O)Nc3ccc4cc3CCc3cncc(c3)Nc3ncc(Cl)c(n3)N4)CC2)cn1C` [Example A230, N-[6-Chloro-2,4,8,18,22-pentaazatetracyclo[14.3.1.1(3,7).1(9,13)]docosa-1(20),3(22),4,6,9(21),10,12,16,18-nonaen-12-yl]-2-{1-[(1,2-dimethyl-1H-imidazol-4-yl)sulfonyl]piperidin-4-yl}acetamide bis(trifluoroacetate)], the IC50 in experiment [1] is 15 nM; in experiment [2], 130 nM; in experiment [3], > 400 nM; at TYK2, 255 nM. Also, the “ALK % of inhibition” value in experiment [4] is 50%.

With `Cc1noc(C)c1S(=O)(=O)N1CCC(CC(=O)Nc2ccc3cc2CCc2cncc(c2)Nc2ncc(Cl)c(n2)N3)CC1` [Example A231, N-[6-chloro-2,4,8,18,22-pentaazatetracyclo[14.3.1.1(3,7).1(9,13)]docosa-1(20),3(22),4,6,9(21),10,12,16,18-nonaen-12-yl]-2-{1-[(3,5-dimethylisoxazol-4-yl)sulfonyl]piperidin-4-yl}acetamide bis(trifluoroacetate)], the IC50 in experiment [1] is 9.7 nM; in experiment [2], 85 nM; in experiment [3], > 400 nM; against TYK2 it was 98 nM. The “ALK % of inhibition” value in experiment [4] is reported as 46%.

Regarding `Cc1nc(C)c(S(=O)(=O)N2CCC(CC(=O)Nc3ccc4cc3CCc3cncc(c3)Nc3ncc(Cl)c(n3)N4)CC2)s1` [Example A232, N-[6-Chloro-2,4,8,18,22-pentaazatetracyclo[14.3.1.1(3,7).1(9,13)]docosa-1(20),3(22),4,6,9(21),10,12,16,18-nonaen-12-yl]-2-{1-[(2,4-dimethyl-1,3-thiazol-5-yl)sulfonyl]piperidin-4-yl}acetamide bis(trifluoroacetate)], the IC50 was 12 nM in experiment [1], 94 nM in experiment [2], > 400 nM in experiment [3] and 326 nM on TYK2. Moreover, the “ALK % of inhibition” value in experiment [4] was determined as 43%.

For the compound `COc1cccc(N2CCC(CC(=O)Nc3ccc4cc3CCc3cncc(c3)Nc3ncc(Cl)c(n3)N4)CC2)c1C#N` [Example A233, N-[6-Chloro-2,4,8,18,22-pentaazatetracyclo[14.3.1.1(3,7).1(9,13)]docosa-1(20),3(22),4,6,9(21),10,12,16,18-nonaen-12-yl]-2-[1-(2-cyano-3-methoxyphenyl)piperidin-4-yl]acetamide tris(trifluoroacetate)], the IC50 is 0.4 nM in experiment [1], 19 nM in experiment [2], > 400 nM in experiment [3] and 26 nM against TYK2. Also, the “ALK % of inhibition” value in experiment [4] is reported as 24%.

For `N#Cc1c(F)cccc1N1CCC(CC(=O)Nc2ccc3cc2CCc2cncc(c2)Nc2ncc(Cl)c(n2)N3)CC1` [Example A234, N-[6-Chloro-2,4,8,18,22-pentaazatetracyclo[14.3.1.1(3,7).1(9,13)]docosa-1(20),3(22),4,6,9(21),10,12,16,18-nonaen-12-yl]-2-[1-(2-cyano-3-fluorophenyl)piperidin-4-yl]acetamide tris(trifluoroacetate)], the IC50 was 1.5 nM in experiment [1], 80 nM in experiment [2], > 400 nM in experiment [3] and 72 nM at TYK2. The “ALK % of inhibition” value in experiment [4] stood at 13%.

On to `N#Cc1c(N2CCC(CC(=O)Nc3ccc4cc3CCc3cncc(c3)Nc3ncc(Cl)c(n3)N4)CC2)cccc1C(F)(F)F` [Example A235, N-[6-Chloro-2,4,8,18,22-pentaazatetracyclo[14.3.1.1(3,7).1(9,13)]docosa-1(20),3(22),4,6,9(21),10,12,16,18-nonaen-12-yl]-2-{1-[2-cyano-3-(trifluoromethyl)phenyl]piperidin-4-yl}acetamide tris(trifluoroacetate)], for which the 50% inhibitory concentration (IC50) in experiment [1] is 12 nM; in experiment [2] it was 326 nM; in experiment [3], > 400 nM; at TYK2, > 400 nM. In addition, the “ALK % of inhibition” value in experiment [4] came to 4.6%.

Take `Cc1cccc(N2CCC(CC(=O)Nc3ccc4cc3CCc3cncc(c3)Nc3ncc(Cl)c(n3)N4)CC2)c1C#N` [Example A236, N-[6-Chloro-2,4,8,18,22-pentaazatetracyclo[14.3.1.1(3,7).1(9,13)]docosa-1(20),3(22),4,6,9(21),10,12,16,18-nonaen-12-yl]-2-[1-(2-cyano-3-methylphenyl)piperidin-4-yl]acetamide tris(trifluoroacetate)]: the IC50 in experiment [1] is 1.7 nM; in experiment [2], 150 nM; in experiment [3], > 400 nM; at TYK2, > 400 nM. Further, the “ALK % of inhibition” value in experiment [4] was found to be 16%.

On to `N#Cc1ccc(C(F)(F)F)cc1N1CCC(CC(=O)Nc2ccc3cc2CCc2cncc(c2)Nc2ncc(Cl)c(n2)N3)CC1` [Example A237, N-[6-Chloro-2,4,8,18,22-pentaazatetracyclo[14.3.1.1(3,7).1(9,13)]docosa-1(20),3(22),4,6,9(21),10,12,16,18-nonaen-12-yl]-2-{1-[2-cyano-5-(trifluoromethyl)phenyl]piperidin-4-yl}acetamide tris(trifluoroacetate)], for which the IC50 in experiment [1] was 90 nM; in experiment [2] it was > 400 nM; in experiment [3], > 400 nM; on TYK2 it was > 400 nM. In experiment [4], the “ALK % of inhibition” value was 5.9%.

For `Cc1cc(C)c(C#N)c(N2CCC(CC(=O)Nc3ccc4cc3CCc3cncc(c3)Nc3ncc(Cl)c(n3)N4)CC2)n1` [Example A239, N-[6-Chloro-2,4,8,18,22-pentaazatetracyclo[14.3.1.1(3,7).1(9,13)]docosa-1(20),3(22),4,6,9(21),10,12,16,18-nonaen-12-yl]-2-[1-(3-cyano-4,6-dimethylpyridin-2-yl)piperidin-4-yl]acetamide tris(trifluoroacetate)], the IC50 in experiment [1] was 16 nM; in experiment [2] it was 226 nM; in experiment [3], > 400 nM; against TYK2, > 400 nM. Also, in experiment [4], the “ALK % of inhibition” value was 17%.

In the case of `N#Cc1c(Cl)cncc1N1CCC(CC(=O)Nc2ccc3cc2CCc2cncc(c2)Nc2ncc(Cl)c(n2)N3)CC1` [Example A240, 2-[1-(5-Chloro-4-cyanopyridin-3-yl)piperidin-4-yl]-N-[6-chloro-2,4,8,18,22-pentaazatetracyclo[14.3.1.1(3,7).1(9,13)]docosa-1(20),3(22),4,6,9(21),10,12,16,18-nonaen-12-yl]acetamide tris(trifluoroacetate)], the IC50 in experiment [1] is 1.5 nM; in experiment [2], 80 nM; in experiment [3], > 400 nM; at TYK2 it was 244 nM. In addition, the “ALK % of inhibition” value in experiment [4] worked out at 29%.

On to `N#Cc1cc(F)c(Cl)nc1N1CCC(CC(=O)Nc2ccc3cc2CCc2cncc(c2)Nc2ncc(Cl)c(n2)N3)CC1` [Example A241, 2-[1-(6-Chloro-3-cyano-5-fluoropyridin-2-yl)piperidin-4-yl]-N-[6-chloro-2,4,8,18,22-pentaazatetracyclo[14.3.1.1(3,7).1(9,13)]docosa-1(20),3(22),4,6,9(21),10,12,16,18-nonaen-12-yl]acetamide tris(trifluoroacetate)], for which the IC50 was 42 nM in experiment [1], > 400 nM in experiment [2], > 400 nM in experiment [3] and > 400 nM against TYK2. Besides, the “ALK % of inhibition” value in experiment [4] is 14%.
